According to patent US20170095440A1, “METHOD OF TREATING CANINE PANCREATITIS” (CK9, LLC, priority 2014, published 2017):
Where “and” joins values, the source holds several entries; their conditions need not be identical. Equal values may be shown once. Entries after “also recorded” stand apart in the source; their conditions may differ.

Key:
[1] = test system: dogs with suspected chronic pancreatitis; assay: Serum cTLI before and after treatment, clinical trial; format: in vivo, dog
Method: (§1) Treatment effects on overall health status, quality of life, and clinical signs were also evaluated with serum biochemistry profiles, complete blood counts, and owner questionnaires.
Dogs were identified by screening current submissions to the Gastrointestinal Laboratory at Texas A&M indicative of pancreatitis (canine pancreas-specific lipase≧400 μg/L) using an immunoassay for measurement of canine pancreas-specific lipase in canine serum known as the spec CPL® Test (IDEXX, Laboratories). A number of potential study participants were directly referred to the investigator by veterinarians, based on positive pet-side SNAP cPL® Test (IDEXX Laboratories, Westbrook, Me., USA) results and concomitant clinical signs. After ascertaining individual suitability of a patient with the referring veterinarian, serum canine pancreas-specific lipase concentration, serum biochemistry profile, and complete blood count were evaluated or re-evaluated 12±4 days after collection of the initial sample submission to the Gastrointestinal Laboratory. Based on the assumption that consecutive canine pancreas-specific lipase elevations indicate chronic pancreatitis, enrollment was offered for patients with canine pancreas-specific lipase concentrations≧400 μg/L, serum triglyceride concentrations below 500 mg/dL, and no indication of hepatic, renal, or other organ disease. […] Owner consent was required prior to phlebotomy and for enrollment into the trial.
[…] […] Individual patients were medicated for between 21 to 31 days.
Blood samples were collected before beginning the treatment and after completion of the treatment period. Complete blood count (red blood cell count, hematocrit, mean corpuscular volume, mean corpuscular hemoglobin, mean corpuscular hemoglobin concentration, differential and absolute white blood cell count, red blood cell count, hemoglobin, platelet estimate, red blood cell morphology, white blood cell morphology, and hemoparasites) was evaluated at the Texas Veterinary Medical Diagnostic Laboratory (TVMDL). A serum chemistry profile with electrolytes (glucose, blood urea nitrogen, creatinine, calcium, phosphorus, albumin, total protein, total bilirubin, alkaline phosphatase, alanine amino transferase, aspartate amino transferase, γ-glutamyl transferase, cholesterol, triglycerides, globuline, sodium, potassium, and chloride) was performed on a SIRRUS analyzer (Stanbio, Boerne, Tex., USA). Serum concentrations of cPL (RI: 0-200 μg/L; Spec cPL® IDEXX Laboratories, Westbrook, Me., USA), cTLI (RI: 5.7-45.2 μg/L; Canine TLI DOUBLE ANTIBODY®, Siemens Healthcare Diagnostics, Los Angeles, Calif., USA), cobalamin (RI: 251-908 ng/L), and folate (RI: 7.7-24.4 μg/L; Immulite 2000®, Siemens Healthcare Diagnostics Inc., Deerfield, Ill., USA), canine specific C-reactive protein (RI: 0-7.6 mg/L, Tridelta Development Limited, Maynooth, CO. Kildare, Ireland), S100A12 (RI: 56-331 μg/L, Gastrointestinal Laboratory in-house radioimmunoassay), and TGF-β1 (RI: 38-72 ng/mL; Quantikine® ELISA, R&D Systems, Minneapolis, […]., USA) were performed at the Gastrointestinal Lab at Texas A&M University.
Pre-treatment and post-treatment results for all diagnostic tests were statistically analyzed using Prism 6 (GraphPad Software, La Jolla, Calif., USA). The D'Agostino-Pearson omnibus test was used to evaluate all datasets for Gaussian distribution. Groups were compared using a paired t-test for normally-distributed data sets and a Wilcoxon matched-pairs test when Gaussian distribution could not be assumed. Mean values and standard deviation are reported for data sets with Gaussian distribution. Median and minimum/maximum values are reported for data sets where Gaussian distribution could not be assumed. The significance threshold was set at p=0.05.

[2] = test system: dogs with suspected chronic pancreatitis; assay: Quality of life reported by owners and referring vets, clinical trial; format: in vivo, dog
Method: as §1
Patients were treated at home and their overall health was monitored by their owners and the referring physician.
Owners of enrolled dogs received instructions to refrain from changing the dog's diet during the trial period and to report on the overall health status and quality of life of their pet.

Han Wistar rats = assay: Rising-dose tolerance study, single oral gavage; format: in vivo, rat
Method: The following parameters and end points were evaluated in the rising-dose phase of this study: clinical signs, body weights, body weight changes, food consumption, and gross necropsy findings.
A total of 18 male and 24 female Han Wistar rats were received from Charles River Laboratories, Raleigh, N.C. The animals were examined and weighed on the day following receipt. The rising-dose phase animals were 8 weeks old and weighed between 176 g and 255 g at initiation of dosing and the multiple-dose phase animals were 8 weeks old and weighed between 172 g and 259 g at initiation of dosing.
For the rising-dose study, the test article was administered to the appropriate animals as a single dose by oral gavage. At least a 3-day observation period was maintained before proceeding to the next dose level/group. The dose volume for each animal was based on the most recent body weight measurement. The doses were given using a syringe with attached gavage cannula. The first day of dosing for each group was designated as Study Day 1.
The animals were removed from the cage and a detailed clinical observation was performed on the day of randomization and Days 1 to 8; 1 to 3 hours postdose on the day of dosing. Each animal was weighed on the day of randomization and Days 1 to 8. Food consumption was quantitatively measured for each animal weekly, starting Day −3, throughout the study.
Rising-dose study animals were subjected to a complete necropsy examination, which included evaluation of the carcass and musculoskeletal system; all external surfaces and orifices; cranial cavity and external surfaces of the brain; and thoracic, abdominal, and pelvic cavities with their associated organs and tissues. Necropsy examinations were conducted under the supervision of a board-certified veterinary pathologist.

dogs = settings: 10, 30 and 100 mg/kg/day, oral capsules, 30-day study; cited from earlier work
[3] = 100, 550 or 1300 mg/kg single dose

SMILES: CN(C)C(=O)COC(=O)Cc1ccc(OC(=O)c2ccc(NC(=N)N)cc2)cc1 [Camostat Mesilate, N,N-dimethylcarbamoylmethyl-4-(4-guanidinobenzoyloxy)phenylacetate methanesulfonate]
- Change in serum cTLI, pre- vs post-treatment ([1]; 4 mg/kg q 8 hrs, n=11, methanesulfonate): no significant difference; also recorded: did not change significantly
- Serum cTLI concentration post-treatment (median) ([1]; 4 mg/kg q 8 hrs, n=11, pre-treatment median 22, post range 17-55, p=0.8311): 28 µg/L
- Change in serum cTLI, pre- vs post-treatment ([1]; 8 mg/kg q 8 hrs, n=17, methanesulfonate): no significant difference; also recorded: No significant changes
- Serum cTLI concentration post-treatment (median) ([1]; 8 mg/kg q 8 hrs, n=17, pre-treatment median 35, p=0.1594, methanesulfonate): 22 µg/L and 24 µg/L
- Change in serum cTLI, pre- vs post-treatment ([1]; all treated dogs combined, n=28, methanesulfonate): no significant difference; also recorded: No significant changes
- Serum cTLI concentration post-treatment (median) ([1]; all treated dogs combined, n=28, pre-treatment median 32, post range 6-81, p=0.2098): 25 µg/L
- Quality of life, reports from referring vets and pet owners ([2]; 24 mg/kg q d orally): subjective improvement of quality of life in some patients
- Quality of life, overall consensus from pet owners ([2]; all treated dogs): had improved
- Clinical observation not considered test article related (Han Wistar rats; 550 mg/kg single dose): hair loss was observed in 1 animal
- Necropsy observation not considered test article related (Han Wistar rats; 1300 mg/kg single dose, male): Dark discoloration of the thymus was observed in one 1300 mg/kg male
- Clinical observation not considered a direct test article effect (Han Wistar rats; 1300 mg/kg single dose, possible aspiration during dosing): piloerection and abnormal breathing sounds were observed in 1 animal on Day 2
- Body weight Days 1 to 8 (Han Wistar rats; [3]): All animals gained weight
- Food consumption (Han Wistar rats; [3]): no significant changes in food consumption
- Gross necropsy findings (Han Wistar rats; [3]): no significant gross necropsy findings
- Test article-related clinical observations (Han Wistar rats; [3]): no test article-related clinical observations
- Survival (Han Wistar rats; single oral gavage 100, 550 or 1300 mg/kg, euthanasia Day 8, methanesulfonate): All animals survived to scheduled euthanasia; also recorded: No animals died
- Toxicity findings (dogs): no significant toxicities
